This passage reports IC50 results from patent US8324245B2, “Quinoline derivative and quinazoline derivative inhibiting self-phosphorylation of hepatocytus proliferator receptor, and medicinal composition containing the same” (Kyowa Hakko Kirin Co., Ltd., priority 2001, dated 2012).

For orientation: IC50 means the point on the concentration scale where inhibition reaches its midpoint. Higher therefore signals weaker potency in that assay.

In this test the target is T1, met (HGF receptor) in human gastric cancer cells MKN45 (Homo sapiens, UniProt P08581).
T1 construct: endogenous in cells; host or cells: MKN45 human gastric cancer cells
Put plainly: Inhibitory activity against met-autophosphorylation using ELISA method (2), MKN45 cells, HGF-independent. It counts as cell-based. In outline:
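Met autophosphorylation was read by sandwich ELISA: phosphotyrosine capture (PY20), anti-HGF receptor detection, peroxidase read-out at 450 nm. Lysates came from MKN45 gastric cancer cells kept in 0.1% FCS RPMI and treated 1 h at 37 °C with test compound, with no added HGF.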

T1 sequence (P08581 25-1390): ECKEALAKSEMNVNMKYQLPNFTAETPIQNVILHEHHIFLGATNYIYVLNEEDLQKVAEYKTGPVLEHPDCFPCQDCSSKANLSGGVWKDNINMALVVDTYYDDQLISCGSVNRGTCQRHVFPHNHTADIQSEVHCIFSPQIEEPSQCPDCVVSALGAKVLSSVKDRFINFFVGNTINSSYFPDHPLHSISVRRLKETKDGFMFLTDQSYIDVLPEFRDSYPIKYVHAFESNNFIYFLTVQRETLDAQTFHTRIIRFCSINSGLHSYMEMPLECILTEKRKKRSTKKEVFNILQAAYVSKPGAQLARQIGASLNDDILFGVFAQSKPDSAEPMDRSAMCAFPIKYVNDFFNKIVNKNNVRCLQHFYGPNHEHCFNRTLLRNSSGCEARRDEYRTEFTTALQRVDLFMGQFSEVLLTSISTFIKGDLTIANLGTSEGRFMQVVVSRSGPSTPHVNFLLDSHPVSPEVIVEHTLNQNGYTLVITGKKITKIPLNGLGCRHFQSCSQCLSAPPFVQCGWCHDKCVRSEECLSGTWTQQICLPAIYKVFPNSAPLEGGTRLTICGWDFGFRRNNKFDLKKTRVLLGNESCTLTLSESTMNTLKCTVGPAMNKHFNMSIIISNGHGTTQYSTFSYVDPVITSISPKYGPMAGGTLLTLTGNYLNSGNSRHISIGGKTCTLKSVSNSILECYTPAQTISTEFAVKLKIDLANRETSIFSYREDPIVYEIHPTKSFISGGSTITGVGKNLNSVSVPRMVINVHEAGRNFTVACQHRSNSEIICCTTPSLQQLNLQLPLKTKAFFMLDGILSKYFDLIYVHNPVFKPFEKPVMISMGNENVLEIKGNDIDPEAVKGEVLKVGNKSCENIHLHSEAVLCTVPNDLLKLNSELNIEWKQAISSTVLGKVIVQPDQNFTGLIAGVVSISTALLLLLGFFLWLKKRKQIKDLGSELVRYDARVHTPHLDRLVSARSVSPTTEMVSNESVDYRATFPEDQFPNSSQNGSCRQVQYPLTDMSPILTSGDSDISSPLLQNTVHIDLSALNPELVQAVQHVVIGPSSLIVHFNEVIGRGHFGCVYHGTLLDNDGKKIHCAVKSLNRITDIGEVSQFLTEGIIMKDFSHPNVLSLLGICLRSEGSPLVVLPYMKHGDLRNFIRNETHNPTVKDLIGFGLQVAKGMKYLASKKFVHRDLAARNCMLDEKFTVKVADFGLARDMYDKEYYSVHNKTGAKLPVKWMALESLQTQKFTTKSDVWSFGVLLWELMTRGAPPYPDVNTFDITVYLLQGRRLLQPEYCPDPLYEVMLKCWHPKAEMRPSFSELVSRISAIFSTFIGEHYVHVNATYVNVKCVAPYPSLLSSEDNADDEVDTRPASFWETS

As to `COc1cc2nccc(Oc3ccc(NC(=S)NC(=O)Cc4cccc(Cl)c4)cc3)c2cc1OC` [Example 171, 1-[2-(3-chlorophenyl)acetyl]-3-[4-(6,7-dimethoxyquinolin-4-yloxy)phenyl]thiourea], the IC50 stood at 282 nM.
Regarding `COc1cc2nccc(Oc3ccc(NC(=S)NC(=O)Cc4cccc(Cl)c4)c(F)c3)c2cc1OC` [Example 172, 1-[2-(3-chlorophenyl)acetyl]-3-[4-(6,7-dimethoxyquinolin-4-yloxy)-2-fluorophenyl]thiourea], the IC50 was 423 nM.
`COc1cc2nccc(Oc3ccc(NC(=S)NC(=O)Cc4cccc(Cl)c4)cc3F)c2cc1OC` [Example 173, 1-[2-(3-chlorophenyl)acetyl]-3-[4-(6,7-dimethoxyquinolin-4-yloxy)-3-fluorophenyl]thiourea] yielded a 50% inhibitory concentration (IC50) of 222 nM. This IC50 is about 1.9-fold lower than that of the compound before.
The same measure for `COc1cc2nccc(Oc3ccc(NC(=S)NC(=O)Cc4cccc(Cl)c4)cc3Cl)c2cc1OC` [Example 174, 1-[3-chloro-4-(6,7-dimethoxyquinolin-4-yloxy)phenyl]-3-[2-(3-chlorophenyl)acetyl]thiourea]: 252 nM; for `COc1cc2nccc(Oc3ccc(NC(=S)NC(=O)Cc4cccc(C)c4)c(F)c3)c2cc1OC` [Example 175, 1-[4-(6,7-dimethoxyquinolin-4-yloxy)-2-fluorophenyl]-3-(2-m-tolylacetyl)thiourea]: 955 nM.
The same measure for `COc1cc2nccc(Oc3ccc(NC(=S)NC(=O)Cc4cccc(C)c4)cc3F)c2cc1OC` [Example 176, 1-[4-(6,7-dimethoxyquinolin-4-yloxy)-3-fluorophenyl]-3-(2-m-tolylacetyl)thiourea]: 221 nM; for `COc1cc2nccc(Oc3ccc(NC(=S)NC(=O)CCCC(C)C)cc3)c2cc1OC` [Example 177, 1-[4-(6,7-dimethoxyquinolin-4-yloxy)phenyl]-3-(5-methyl-hexanoyl)thiourea]: 267 nM.
The same measure for `COc1cc2nccc(Oc3ccc(NC(=S)NC(=O)CCCC(C)C)c(F)c3)c2cc1OC` [Example 178, 1-[4-(6,7-dimethoxyquinolin-4-yloxy)-2-fluorophenyl]-3-(5-methyl-hexanoyl)thiourea]: 268 nM.
With `COc1cc2nccc(Oc3ccc(NC(=S)NC(=O)CCCC(C)C)cc3F)c2cc1OC` [Example 179, 1-[4-(6,7-dimethoxyquinolin-4-yloxy)-3-fluorophenyl]-3-(5-methyl-hexanoyl)thiourea], the midpoint of inhibition, the IC50, lay at 261 nM.
The same measure for `COCCC(=O)NC(=S)Nc1ccc(Oc2ccnc3cc(OC)c(OC)cc23)c(Cl)c1` [Example 180, 1-[3-chloro-4-(6,7-dimethoxyquinolin-4-yloxy)phenyl]-3-(3-methoxy-propionyl)thiourea]: 2560 nM; for `COc1cccc(CC(=O)NC(=S)Nc2ccc(Oc3ccnc4cc(OC)c(OC)cc34)c(F)c2)c1` [Example 181, 1-[4-(6,7-dimethoxyquinolin-4-yloxy)-3-fluorophenyl]-3-[2-(3-methoxyphenyl)acetyl]thiourea]: 243 nM; for `COc1cc2nccc(Oc3ccc(NC(=S)NC(=O)Cc4ccccc4Cl)c(F)c3)c2cc1OC` [Example 182, 1-[2-(2-chlorophenyl)acetyl]-3-[4-(6,7-dimethoxyquinolin-4-yloxy)-2-fluorophenyl]thiourea]: 256 nM.
The same measure for `COc1cc2nccc(Oc3ccc(NC(=S)NC(=O)Cc4ccccc4Cl)cc3Cl)c2cc1OC` [Example 183, 1-[3-chloro-4-(6,7-dimethoxyquinolin-4-yloxy)phenyl]-3-[2-(2-chlorophenyl)acetyl]thiourea]: 224 nM; for `COc1cccc(CC(=O)NC(=S)Nc2ccc(Oc3ccnc4cc(OC)c(OC)cc34)cc2)c1` [Example 184, 1-[4-(6,7-dimethoxyquinolin-4-yloxy)phenyl]-3-[2-(3-methoxyphenyl)acetyl]thiourea]: 268 nM.
The compound `COc1cccc(CC(=O)NC(=S)Nc2ccc(Oc3ccnc4cc(OC)c(OC)cc34)cc2F)c1` [Example 185, 1-[4-(6,7-dimethoxyquinolin-4-yloxy)-2-fluorophenyl]-3-[2-(3-methoxyphenyl)acetyl]thiourea] showed an IC50 of 248 nM.
The same measure for `COc1cccc(CC(=O)NC(=S)Nc2ccc(Oc3ccnc4cc(OC)c(OC)cc34)c(Cl)c2)c1` [Example 186, 1-[3-chloro-4-(6,7-dimethoxyquinolin-4-yloxy)phenyl]-3-[2-(3-methoxyphenyl)acetyl]thiourea]: 234 nM.
The same measure for `COc1cc2nccc(Oc3ccc(NC(=S)NC(=O)Cc4ccc(Cl)cc4)cc3)c2cc1OC` [Example 187, 1-[2-(4-chlorophenyl)acetyl]-3-[4-(6,7-dimethoxyquinolin-4-yloxy)phenyl]thiourea]: 258 nM; for `COc1cc2nccc(Oc3ccc(NC(=S)NC(=O)Cc4ccc(Cl)cc4)c(F)c3)c2cc1OC` [Example 188, 1-[2-(4-chlorophenyl)acetyl]-3-[4-(6,7-dimethoxyquinolin-4-yloxy)-2-fluorophenyl]thiourea]: 252 nM.
For the compound `COc1cc2nccc(Oc3ccc(NC(=S)NC(=O)Cc4ccc(Cl)cc4)cc3Cl)c2cc1OC` [Example 189, 1-[3-chloro-4-(6,7-dimethoxyquinolin-4-yloxy)phenyl]-3-[2-(4-chlorophenyl)acetyl]thiourea], the IC50 amounted to 232 nM.
The same measure for `COc1cc2nccc(Oc3ccc(NC(=S)NC(=O)Cc4ccc(C)cc4)cc3F)c2cc1OC` [Example 190, 1-[4-(6,7-dimethoxyquinolin-4-yloxy)-3-fluorophenyl]-3-(2-p-tolylacetyl)thiourea]: 224 nM; for `COc1cc2nccc(Oc3ccc(NC(=S)NC(=O)CC4CCC(C)CC4)c(F)c3)c2cc1OC` (centres unmarked) [Example 191, 1-[4-(6,7-dimethoxyquinolin-4-yloxy)-2-fluorophenyl]-3-[2-(4-methyl-cyclohexyl)acetyl]thiourea]: 977 nM.
Compound `COc1cc2nccc(Oc3ccc(NC(=S)NC(=O)CC4CCC(C)CC4)cc3F)c2cc1OC` (centres unmarked) [Example 192, 1-[4-(6,7-dimethoxyquinolin-4-yloxy)-3-fluorophenyl]-3-[2-(4-methyl-cyclohexyl)acetyl]thiourea] gave an IC50 of 687 nM.
Take `CCCCOCC(=O)NC(=S)Nc1ccc(Oc2ccnc3cc(OC)c(OC)cc23)c(Cl)c1` [Example 193, 1-(2-butoxyacetyl)-3-[3-chloro-4-(6,7-dimethoxyquinolin-4-yloxy)phenyl]thiourea]: the concentration for half-maximal inhibition (IC50) was determined as 444 nM.
`COc1cc2nccc(Oc3ccc(NC(=S)NC(=O)Cc4cccc(F)c4F)c(F)c3)c2cc1OC` [Example 194, 1-[2-(2,3-difluorophenyl)acetyl]-3-[4-(6,7-dimethoxyquinolin-4-yloxy)-2-fluorophenyl]thiourea]: the 50% inhibitory concentration (IC50) came to 319 nM.
`COc1cc2nccc(Oc3ccc(NC(=S)NC(=O)Cc4cc(F)ccc4F)cc3F)c2cc1OC` [Example 195, 1-[2-(2,5-difluorophenyl)acetyl]-3-[4-(6,7-dimethoxyquinolin-4-yloxy)-3-fluorophenyl]thiourea] showed a half-maximal inhibitory concentration (IC50) of 291 nM.
The same measure for `COc1cc2nccc(Oc3ccc(NC(=S)NC(=O)Cc4cc(F)cc(F)c4)c(F)c3)c2cc1OC` [Example 196, 1-[2-(3,5-difluorophenyl)acetyl]-3-[4-(6,7-dimethoxyquinolin-4-yloxy)-2-fluorophenyl]thiourea]: 322 nM.
